Data published in patent US7214675B2, “Urea substituted imidazoquinoline ethers” (3M Innovative Properties Company, priority 2000, dated 2007).

Tests used:
[1] = system: interferon (α) induction in human peripheral blood mononuclear cells (PBMC); test: Cytokine induction in human cells: interferon (α) secreted by PBMC, ELISA; format: cell-based; parameters: key to Lowest Effective Concentration (μM) Interferon: A “*” indicates that no induction was seen at any of the tested concentrations; generally the highest concentration tested was 10 or 30 μM; conditions: lowest concentration found to induce interferon, incubated 18 to 24 hours at 37° C.
Source text: (§1) An in vitro human blood cell system is used to assess cytokine induction. Activity is based on the measurement of interferon and tumor necrosis factor (α) (IFN and TNF, respectively) secreted into culture media as described by Testerman et. al. In “Cytokine Induction by the Immunomodulators Imiquimod and S-27609”, Journal of Leukocyte Biology, 58, 365–372 (September, 1995).
(§2) Whole blood from healthy human donors is collected by venipuncture into EDTA vacutainer tubes. Peripheral blood mononuclear cells (PBMC) are separated from whole blood by density gradient centrifugation using Histopaque®-1077. Blood is diluted 1:1 with Dulbecco's Phosphate Buffered Saline (DPBS) or Hank's Balanced Salts Solution (HBSS). The PBMC layer is collected and washed twice with DPBS or HBSS and resuspended at 4×10^6 cells/mL in RPMI complete. The PBMC suspension is added to 48 well flat bottom sterile tissue culture plates (Costar, Cambridge, Mass. or Becton Dickinson Labware, Lincoln Park, N.J.) containing an equal volume of RPMI complete media containing test compound.
(§3) The compounds are solubilized in dimethyl sulfoxide (DMSO). The DMSO concentration should not exceed a final concentration of 1% for addition to the culture wells. The compounds are generally tested at concentrations ranging from 30–0.014 μM.
(§4) The solution of test compound is added at 60 μM to the first well containing RPMI complete and serial 3 fold dilutions are made in the wells. The PBMC suspension is then added to the wells in an equal volume, bringing the test compound concentrations to the desired range (30–0.014 μM). The final concentration of PBMC suspension is 2×10^6 cells/mL. The plates are covered with sterile plastic lids, mixed gently and then incubated for 18 to 24 hours at 37° C. in a 5% carbon dioxide atmosphere.
(§5) Following incubation the plates are centrifuged for 10 minutes at 1000 rpm (˜200×g) at 4° C. The cell-free culture supernatant is removed with a sterile polypropylene pipet and transferred to sterile polypropylene tubes. Samples are maintained at −30 to −70° C. until analysis. The samples are analyzed for interferon (α) by ELISA and for tumor necrosis factor (α) by ELISA or IGEN Assay
Interferon (α) concentration is determined by ELISA using a Human Multi-Species kit from PBL Biomedical Laboratories, New Brunswick, N.J. Results are expressed in pg/mL.
(§6) The table below lists the lowest concentration found to induce interferon and the lowest concentration found to induce tumor necrosis factor for each compound.

[2] = system: tumor necrosis factor (α) induction in human peripheral blood mononuclear cells (PBMC); test: Cytokine induction in human cells: tumor necrosis factor (α) secreted by PBMC, ELISA or IGEN assay; format: cell-based; parameters: key to Lowest Effective Concentration (μM) Tumor Necrosis Factor: A “*” indicates that no induction was seen at any of the tested concentrations; generally the highest concentration tested was 10 or 30 μM; conditions: lowest concentration found to induce tumor necrosis factor, incubated 18 to 24 hours at 37° C.
Source text: as §1, §2, §3, §4, §5
Tumor necrosis factor (α) (TNF) concentration is determined using ELISA kits available from Biosource International, Camarillo, Calif. Alternately, the TNF concentration can be determined by Origen® M-Series Immunoassay and read on an IGEN M-8 analyzer from IGEN International, Gaithersburg, Md. The immunoassay uses a human TNF capture and detection antibody pair from Biosource International, Camarillo, Calif. Results are expressed in pg/mL.
as §6

melting point [°C] | Structure (SMILES) | minimal effective concentration [1] [µM] | minimal effective concentration [2] [µM] | Lowest Effective Concentration (μM) Interferon [1] | Lowest Effective Concentration (μM) Tumor Necrosis Factor [2]
180 to 182 | COCCc1nc2c(N)nc3c(c2n1CCOCCNC(=O)Nc1ccccc1)CCCC3 [Example 2, N-(2-{2-[4-amino-2-(2-methoxyethyl)-6,7,8,9-tetrahydro-1H-imidazo[4,5-c]quinolin-1-yl]ethoxy}ethyl)-N′-phenylurea] | – | – | – | –
167.7 to 170 | COCCc1nc2c(N)nc3c(c2n1CCOCCN(C)C(=O)Nc1ccccc1)CCCC3 [Example 4, N-(2-{2-[4-amino-2-(2-methoxyethyl)-6,7,8,9-tetrahydro-1H-imidazo[4,5-c]quinolin-1-yl]ethoxy}ethyl)-N-methyl-N′-phenylurea] | – | – | – | –
121.8 to 122.3 | COCCc1nc2c(N)nc3ccccc3c2n1CCOCCN(C)C(=O)N1CCOCC1 [Example 6, N-(2-{2-[4-amino-2-(2-methoxyethyl)-1H-imidazo[4,5-c]quinolin-1-yl]ethoxy}ethyl)-N-methylmorpholine-4-carboxamide] | – | – | – | –
– | CCCCc1nc2c(N)nc3ccccc3c2n1CCOCCNC(=O)NC(C)C [Example 7] | 0.0001 | 10 | – | –
– | CCCCc1nc2c(N)nc3ccccc3c2n1CCOCCNC(=O)NC(C)(C)C [Example 8] | 0.0001 | 10 | – | –
– | CCCCNC(=O)NCCOCCn1c(CCCC)nc2c(N)nc3ccccc3c21 [Example 9] | 0.0001 | 1 | – | –
– | CCCCc1nc2c(N)nc3ccccc3c2n1CCOCCNC(=O)Nc1ccccc1 [Example 10] | 0.0001 | 10 | – | –
– | CCCCc1nc2c(N)nc3ccccc3c2n1CCOCCNC(=O)N1CCOCC1 [Example 11] | 0.0001 | 0.1 | – | –
– | CCCCc1nc2c(N)nc3ccccc3c2n1CCOCCNC(=O)NC1CCCCC1 [Example 12] | 0.0001 | 1 | – | –
– | CCCCc1nc2c(N)nc3ccccc3c2n1CCOCCNC(=O)Nc1cccc(C#N)c1 [Example 13] | 0.0001 | 1 | – | –
– | CCCCc1nc2c(N)nc3ccccc3c2n1CCOCCNC(=O)Nc1cccc(OC)c1 [Example 14] | 0.0001 | 10 | – | –
– | CCCCc1nc2c(N)nc3ccccc3c2n1CCOCCNC(=O)N[C@H]1C[C@@H]1c1ccccc1 [Example 15] | 0.0001 | 0.1 | – | –
– | CCCCc1nc2c(N)nc3ccccc3c2n1CCOCCNC(=O)Nc1ccc(N(C)C)cc1 [Example 16] | 0.0001 | 10 | – | –
– | CCCCc1nc2c(N)nc3ccccc3c2n1CCOCCNC(=O)Nc1cccc(SC)c1 [Example 17] | – | 10 | * | –
– | CCCCc1nc2c(N)nc3ccccc3c2n1CCOCCNC(=O)Nc1ccc(OC)cc1OC [Example 18] | 1 | – | – | *
– | CCCCc1nc2c(N)nc3ccccc3c2n1CCOCCNC(=O)NS(=O)(=O)c1ccccc1 [Example 19] | 0.1 | 10 | – | –
– | CCCCc1nc2c(N)nc3ccccc3c2n1CCOCCNC(=O)NS(=O)(=O)c1ccc(C)cc1 [Example 20] | 0.01 | 10 | – | –
– | CCCCc1nc2c(N)nc3ccccc3c2n1CCOCCNC(=O)NS(=O)(=O)c1ccc(Cl)cc1 [Example 21] | 1 | 10 | – | –
– | CCC(COCCC1CCN(C(=O)NC(C)C)CC1)n1cnc2c(N)nc3ccccc3c21 (centres unmarked) [Example 22] | 0.1 | 1 | – | –
– | CCCCNC(=O)N1CCC(CCOCC(CC)n2cnc3c(N)nc4ccccc4c32)CC1 (centres unmarked) [Example 23] | 1 | 1 | – | –
– | CCC(COCCC1CCN(C(=O)Nc2ccccc2)CC1)n1cnc2c(N)nc3ccccc3c21 (centres unmarked) [Example 24] | 0.1 | 1 | – | –

melting point [°C] | Structure (SMILES) | minimal effective concentration [1] [µM] | minimal effective concentration [2] [µM] | Lowest Effective Concentration (μM) Interferon [1] | Lowest Effective Concentration (μM) Tumor Necrosis Factor [2]
– | CCC(COCCC1CCN(C(=O)N2CCOCC2)CC1)n1cnc2c(N)nc3ccccc3c21 (centres unmarked) [Example 25] | 0.1 | 1 | – | –
– | CCC(COCCC1CCN(C(=O)NC2CCCCC2)CC1)n1cnc2c(N)nc3ccccc3c21 (centres unmarked) [Example 26] | 0.1 | 1 | – | –
– | CCC(COCCC1CCN(C(=O)Nc2cccc(C#N)c2)CC1)n1cnc2c(N)nc3ccccc3c21 (centres unmarked) [Example 27] | 0.1 | 1 | – | –
– | CCC(COCCC1CCN(C(=O)Nc2cccc(OC)c2)CC1)n1cnc2c(N)nc3ccccc3c21 (centres unmarked) [Example 28] | 0.1 | 1 | – | –
– | CCC(COCCC1CCN(C(=O)N[C@@H]2C[C@H]2c2ccccc2)CC1)n1cnc2c(N)nc3ccccc3c21 (some centres unmarked) [Example 29] | 0.1 | 1 | – | –
– | CCC(COCCC1CCN(C(=O)Nc2cccc(C(C)=O)c2)CC1)n1cnc2c(N)nc3ccccc3c21 (centres unmarked) [Example 30] | 1 | 1 | – | –
– | CCC(COCCC1CCN(C(=O)Nc2cccc(SC)c2)CC1)n1cnc2c(N)nc3ccccc3c21 (centres unmarked) [Example 31] | 1 | 10 | – | –
– | CCC(COCCC1CCN(C(=O)Nc2ccc(OC)cc2OC)CC1)n1cnc2c(N)nc3ccccc3c21 (centres unmarked) [Example 32] | 0.1 | 1 | – | –
– | CCC(COCCC1CCN(C(=O)NS(=O)(=O)c2ccc(C)cc2)CC1)n1cnc2c(N)nc3ccccc3c21 (centres unmarked) [Example 33] | 1 | 10 | – | –
– | CCC(COCCC1CCN(C(=O)NS(=O)(=O)c2ccc(Cl)cc2)CC1)n1cnc2c(N)nc3ccccc3c21 (centres unmarked) [Example 34] | 1 | 10 | – | –
– | CCC(COCCC1CCN(C(=S)NC(=O)c2ccco2)CC1)n1cnc2c(N)nc3ccccc3c21 (centres unmarked) [Example 35] | 1 | 1 | – | –
– | CCC(COCCC1CCN(C(=S)Nc2ccccc2)CC1)n1cnc2c(N)nc3ccccc3c21 (centres unmarked) [Example 36] | 0.1 | – | – | *
– | CC(C)(C)NC(=O)NCCOCCn1cnc2c(N)nc3ccccc3c21 [Example 37] | 10 | 10 | – | –
– | Nc1nc2ccccc2c2c1ncn2CCOCCNC(=O)Nc1ccccc1 [Example 38] | 10 | 10 | – | –
– | Nc1nc2ccccc2c2c1ncn2CCOCCNC(=O)NC1CCCCC1 [Example 39] | 10 | 10 | – | –
– | N#Cc1cccc(NC(=O)NCCOCCn2cnc3c(N)nc4ccccc4c32)c1 [Example 40] | 10 | 10 | – | –
– | COc1cccc(NC(=O)NCCOCCn2cnc3c(N)nc4ccccc4c32)c1 [Example 41] | 10 | 10 | – | –
– | Nc1nc2ccccc2c2c1ncn2CCOCCNC(=O)N[C@@H]1C[C@H]1c1ccccc1 [Example 42] | 10 | – | – | *
– | COc1ccc(NC(=O)NCCOCCn2cnc3c(N)nc4ccccc4c32)c(OC)c1 [Example 43] | 10 | 10 | – | –
– | Nc1nc2ccccc2c2c1ncn2CCOCCNC(=O)NS(=O)(=O)c1ccccc1 [Example 44] | – | – | * | *
193 to 195 | Cc1nc2c(N)nc3ccccc3c2n1CCOCCNC(=O)Nc1ccccc1 [Example 48, N-{2-[2-(4-amino-2-methyl-1H-imidazo[4,5-c]quinolin-1-yl)ethoxy]ethyl}-N′-phenylurea] | – | – | – | –
